Values quoted from earlier work as cited in patent US20030114475A1, “Methods for the treatment of addiction” (Addiction Therapies, Inc., priority 2001, published 2003).

Tests used:
[1] = in vivo
[2] = tested on: cocaine self-administration
dopamine transporter = dopamine transporter (Homo sapiens, UniProt Q01959)
[3] = in vivo; remark: listed apart in the source

Sequence of dopamine transporter (Q01959 whole entry): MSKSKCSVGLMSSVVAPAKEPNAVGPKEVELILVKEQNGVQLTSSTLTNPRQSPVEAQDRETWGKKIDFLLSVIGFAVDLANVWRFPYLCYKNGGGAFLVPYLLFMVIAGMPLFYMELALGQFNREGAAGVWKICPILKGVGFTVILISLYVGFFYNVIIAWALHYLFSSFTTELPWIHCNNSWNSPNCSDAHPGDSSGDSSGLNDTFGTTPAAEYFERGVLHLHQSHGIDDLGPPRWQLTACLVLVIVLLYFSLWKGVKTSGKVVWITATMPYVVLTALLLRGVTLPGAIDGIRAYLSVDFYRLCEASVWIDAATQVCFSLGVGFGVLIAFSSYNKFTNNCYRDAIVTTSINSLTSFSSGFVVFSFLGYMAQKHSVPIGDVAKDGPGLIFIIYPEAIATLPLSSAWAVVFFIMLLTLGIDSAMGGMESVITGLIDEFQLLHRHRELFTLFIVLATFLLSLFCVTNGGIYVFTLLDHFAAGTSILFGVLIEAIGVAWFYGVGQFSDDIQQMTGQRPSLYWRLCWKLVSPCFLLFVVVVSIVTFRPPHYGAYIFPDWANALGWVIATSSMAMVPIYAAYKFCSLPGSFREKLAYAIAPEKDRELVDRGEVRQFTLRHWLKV

Row | SMILES | elimination half-life [1] | time to peak plasma concentrations [1] | effect on cocaine self-administration ([2]; rats) | lever presses for a cocaine infusion after pre-treatment ([2]; rats pre-treated with 53.8 mg/kg, oral, decreased from 150±20 lever presses, unpublished observations, Dr. Susan Schenck) | affinity and selectivity for the dopamine transporter (dopamine transporter) | oral availability [3]
1 | COC(=O)C(c1ccccc1)C1CCCCN1 (stereo not drawn) [Methylphenidate, methylphenidate] | 2 to 3 h | 1 to 3 h | – | – | – | –
2 | Cc1ccc(-c2cc([C@@H]3C4CCC(C[C@@H]3c3ccc(Cl)cc3)N4C)on2)cc1 (stereo partly drawn) [RTI-336] | – | – | inhibits cocaine self-administration | 36±14 lever presses | high affinity and selectivity | orally available
